Assay results taken from patent US10913727B2, “Modulators of the integrated stress pathway” (Calico Life Sciences LLC, priority 2016, dated 2021).

What follows are compounds tested on HEK293T cells carrying the ATF4 luciferase reporter (assay: ATF4-Luc assay, in vitro model of Vanishing Cell White Matter Disease (VWMD)). Details: Homo sapiens, HEK-293T, 1 μg/mL tunicamycin, 7 hours, One Glo luminescence.
Assay type: cell-based
Method in brief: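 Reporter cells were stably generated by retroviral transduction and puromycin selection, then seeded at 30,000 cells/well. Next day, cells received 1 μg/mL tunicamycin with 200 nM test compound for 7 h, and luciferase luminescence was read with a one-step reagent. Values reported as EC50.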

Question: `CN(C)Cc1ccccc1C(=O)NC12CC(NC(=O)COc3ccc(Cl)c(F)c3)(C1)C2` [Compound 542, N-{3-[2-(4-chloro-3-fluorophenoxy)acetamido]bicyclo[1.1.1]pentan-1-yl}-2-[(dimethylamino)methyl]benzamide] was tested. Which EC50 did it give?
Answer: > 2000 nM

Question: `O=C(COc1ccc(Cl)c(F)c1)NC12CC(NC(=O)c3coc(C4CC4)n3)(C1)C2` [Compound 248, N-{3-[2-(4-chloro-3-fluorophenoxy)acetamido]bicyclo[1.1.1]pentan-1-yl}-2-cyclopropyl-1,3-oxazole-4-carboxamide] was tested. Which EC50 did it give?
Answer: 50 to 250 nM

Question: Which EC50 does the source give for `O=C(COc1ccc(Cl)c(F)c1)NC12CC(NC(=O)c3ccc(CO)cn3)(C1)C2` [Compound 159, N-{3-[2-(4-chloro-3-fluorophenoxy)acetamido]bicyclo[1.1.1]pentan-1-yl}-5-(hydroxymethyl)pyridine-2-carboxamide] here?
Answer: 250 to 1000 nM

Question: How did the EC50 turn out when `O=C(COc1ccc(Cl)c(F)c1)NC12CC(NC(=O)c3cccnc3-n3cccn3)(C1)C2` [Compound 807, N-{3-[2-(4-chloro-3-fluorophenoxy)acetamido]bicyclo[1.1.1]pentan-1-yl}-2-(1H-pyrazol-1-yl)pyridine-3-carboxamide] was run?
Answer: > 2000 nM

Question: Which EC50 does the source give for `O=C(COc1ccc(Cl)c(F)c1)NC12CC(NC(=O)c3ncn4ccccc34)(C1)C2` [Compound 782, N-{3-[2-(4-chloro-3-fluorophenoxy)acetamido]bicyclo[1.1.1]pentan-1-yl}imidazo[1,5-a]pyridine-1-carboxamide] here?
Answer: > 2000 nM

Question: With `O=C(COc1ccc(Cl)c(F)c1)NC12CC(NC(=O)c3ccc(Cl)cc3)(C1)C2` [Compound 199, 4-chloro-N-{3-[2-(4-chloro-3-fluorophenoxy)acetamido]bicyclo[1.1.1]pentan-1-yl}benzamide] as the compound, how does the EC50 read?
Answer: 50 to 250 nM

Question: `O=C(COc1ccc(Cl)c(F)c1)NC12CC(NC(=O)c3ncccn3)(C1)C2` [Compound 793, N-{3-[2-(4-chloro-3-fluorophenoxy)acetamido]bicyclo[1.1.1]pentan-1-yl}pyrimidine-2-carboxamide] was tested. Which EC50 did it give?
Answer: 250 to 1000 nM

Question: `O=C(COc1ccc(Cl)c(F)c1)NC12CC(NC(=O)c3cc(/C=C/CO)ccn3)(C1)C2` [Compound 200, N-{3-[2-(4-chloro-3-fluorophenoxy)acetamido]bicyclo[1.1.1]pentan-1-yl}-4-[(1E)-3-hydroxyprop-1-en-1-yl]pyridine-2-carboxamide] was tested. Which EC50 did it give?
Answer: 50 to 250 nM

Question: Which EC50 does the source give for `O=C(COc1ccc(Cl)c(F)c1)NC12CC(NC(=O)c3ccc(CO)nc3)(C1)C2` [Compound 718, N-{3-[2-(4-chloro-3-fluorophenoxy)acetamido]bicyclo[1.1.1]pentan-1-yl}-6-(hydroxymethyl)pyridine-3-carboxamide] here?
Answer: 250 to 1000 nM

Question: With `CCc1cc(C(=O)NC23CCC(NC(=O)COc4ccc(Cl)c(F)c4)(CC2)C(O)C3)no1` (stereo not shown) [Compound 606, N-{4-[2-(4-chloro-3-fluorophenoxy)acetamido]-3-hydroxybicyclo[2.2.2]octan-1-yl}-5-ethyl-1,2-oxazole-3-carboxamide] as the compound, how does the EC50 read?
Answer: 50 to 250 nM

Question: With `O=C(COc1ccc(Cl)c(F)c1)NC12CCC(NC(=O)c3cnc(C(F)(F)F)cn3)(CC1)C[C@@H]2O` [Compound 652, N-{(3S)-4-[2-(4-chloro-3-fluorophenoxy)acetamido]-3-hydroxybicyclo[2.2.2]octan-1-yl}-5-(trifluoromethyl)pyrazine-2-carboxamide] as the compound, how does the EC50 read?
Answer: < 50 nM

Question: Which EC50 does the source give for `O=C(COc1ccc(Cl)c(F)c1)NC12CCC(NC(=O)c3ccccc3C(=O)O)(CC1)CC2O` (stereo not shown) [Compound 656, 2-({4-[2-(4-chloro-3-fluorophenoxy)acetamido]-3-hydroxybicyclo[2.2.2]octan-1-yl}carbamoyl)benzoic acid] here?
Answer: > 2000 nM

Question: `CC(C)(O)c1ccc(C(=O)NC23CC(NC(=O)COc4ccc(Cl)c(F)c4)(C2)C3)cc1` [Compound 208, N-{3-[2-(4-chloro-3-fluorophenoxy)acetamido]bicyclo[1.1.1]pentan-1-yl}-4-(2-hydroxypropan-2-yl)benzamide] was tested. Which EC50 did it give?
Answer: 1000 to 2000 nM
